Data as given in PubChem BioAssay (NCI).
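Cultured in 96-well plates, cells were exposed to test compound for 48 hours across five concentrations. TGI: total growth inhibition.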

What was measured:
Experiment in all cases: inhibition of tumour cell growth, NCI panel, 48 h
786-0 renal = tested on: 786-0 renal
A498 renal = tested on: A498 renal
A549 NSCLC = tested on: A549 NSCLC
ACHN renal = tested on: ACHN renal
BT-549 breast = tested on: BT-549 breast
CAKI-1 renal = tested on: CAKI-1 renal
COLO 205 colon = tested on: COLO 205 colon
DU-145 prostate = tested on: DU-145 prostate
EKVX NSCLC = tested on: EKVX NSCLC
HCC-2998 colon = tested on: HCC-2998 colon
HCT-116 colon = tested on: HCT-116 colon
HCT-15 colon = tested on: HCT-15 colon
HOP-62 NSCLC = tested on: HOP-62 NSCLC
HOP-92 NSCLC = tested on: HOP-92 NSCLC
HS 578T breast = tested on: HS 578T breast
HT29 colon = tested on: HT29 colon
IGROV1 ovarian = tested on: IGROV1 ovarian
K-562 leukemia = tested on: K-562 leukemia
KM12 colon = tested on: KM12 colon
LOX IMVI melanoma = tested on: LOX IMVI melanoma
M14 melanoma = tested on: M14 melanoma
MALME-3M melanoma = tested on: MALME-3M melanoma
MCF7 breast = tested on: MCF7 breast
MDA-MB-231 breast = tested on: MDA-MB-231 breast
MDA-MB-435 = tested on: MDA-MB-435
MDA-N = tested on: MDA-N
MOLT-4 leukemia = tested on: MOLT-4 leukemia
NCI-H226 lung = tested on: NCI-H226 lung
NCI-H23 lung = tested on: NCI-H23 lung
NCI-H460 lung = tested on: NCI-H460 lung
NCI-H522 lung = tested on: NCI-H522 lung
NCI/ADR-RES ovarian = tested on: NCI/ADR-RES ovarian
OVCAR-3 ovarian = tested on: OVCAR-3 ovarian
OVCAR-4 ovarian = tested on: OVCAR-4 ovarian
OVCAR-5 ovarian = tested on: OVCAR-5 ovarian
OVCAR-8 ovarian = tested on: OVCAR-8 ovarian
PC-3 prostate = tested on: PC-3 prostate
RPMI-8226 leukemia = tested on: RPMI-8226 leukemia
RXF 393 renal = tested on: RXF 393 renal
SF-268 CNS = tested on: SF-268 CNS
SF-295 CNS = tested on: SF-295 CNS
SF-539 CNS = tested on: SF-539 CNS
SK-MEL-2 melanoma = tested on: SK-MEL-2 melanoma
SK-MEL-5 melanoma = tested on: SK-MEL-5 melanoma
SK-OV-3 ovarian = tested on: SK-OV-3 ovarian
SN12C renal = tested on: SN12C renal
SNB-19 CNS = tested on: SNB-19 CNS
SNB-75 CNS = tested on: SNB-75 CNS
SR leukemia = tested on: SR leukemia
SW-620 colon = tested on: SW-620 colon
T-47D breast = tested on: T-47D breast
TK-10 renal = tested on: TK-10 renal
U251 CNS = tested on: U251 CNS
UACC-257 melanoma = tested on: UACC-257 melanoma
UACC-62 melanoma = tested on: UACC-62 melanoma
UO-31 renal = tested on: UO-31 renal

`COC1(OC)CCc2c(sc3ncnc(Nc4cccc(Br)c4)c23)C1` was tested. Which TGI (786-0 renal) did it give?
The TGI was greater than 100 µM.

What about the TGI (A498 renal) of the same compound?
Its TGI is greater than 100 µM.

What about the TGI (A549 NSCLC) of the same compound?
Its TGI is greater than 100 µM.

What about the TGI (ACHN renal) of the same compound?
The TGI was greater than 100 µM.

What about the TGI (BT-549 breast) of the same compound?
Its TGI is greater than 100 µM.

And the TGI (CAKI-1 renal)?
Its TGI is greater than 100 µM.

What about the TGI (COLO 205 colon) of the same compound?
The TGI was greater than 100 µM.

And the TGI (DU-145 prostate)?
Its TGI is 53.9 µM.

And the TGI (EKVX NSCLC)?
The TGI was 59.2 µM.

And the TGI (HCC-2998 colon)?
The TGI was greater than 100 µM.

And the TGI (HCT-116 colon)?
The TGI was greater than 100 µM.

And the TGI (HCT-15 colon)?
Its TGI is greater than 100 µM.

What about the TGI (HOP-62 NSCLC) of the same compound?
Its TGI is greater than 100 µM.

And the TGI (HOP-92 NSCLC)?
Its TGI is greater than 100 µM.

What about the TGI (HS 578T breast) of the same compound?
The TGI was greater than 100 µM.

What about the TGI (HT29 colon) of the same compound?
The TGI was 45.1 µM.

What about the TGI (IGROV1 ovarian) of the same compound?
The TGI was greater than 100 µM.

What about the TGI (K-562 leukemia) of the same compound?
Its TGI is greater than 100 µM.

And the TGI (KM12 colon)?
The TGI was greater than 100 µM.

What about the TGI (LOX IMVI melanoma) of the same compound?
The TGI was greater than 100 µM.

And the TGI (M14 melanoma)?
Its TGI is greater than 100 µM.

And the TGI (MALME-3M melanoma)?
The TGI was greater than 100 µM.

What about the TGI (MCF7 breast) of the same compound?
The TGI was greater than 100 µM.

And the TGI (MDA-MB-231 breast)?
The TGI was greater than 100 µM.

What about the TGI (MDA-MB-435) of the same compound?
The TGI was greater than 100 µM.

What about the TGI (MDA-N) of the same compound?
The TGI was greater than 100 µM.

What about the TGI (MOLT-4 leukemia) of the same compound?
The TGI was 41.5 µM.

What about the TGI (NCI-H226 lung) of the same compound?
The TGI was greater than 100 µM.

What about the TGI (NCI-H23 lung) of the same compound?
The TGI was greater than 100 µM.

And the TGI (NCI-H460 lung)?
Its TGI is greater than 100 µM.

What about the TGI (NCI-H522 lung) of the same compound?
Its TGI is 30.3 µM.

And the TGI (NCI/ADR-RES ovarian)?
Its TGI is 76.3 µM.

And the TGI (OVCAR-3 ovarian)?
The TGI was greater than 100 µM.

What about the TGI (OVCAR-4 ovarian) of the same compound?
The TGI was greater than 100 µM.

And the TGI (OVCAR-5 ovarian)?
Its TGI is 51.4 µM.

What about the TGI (OVCAR-8 ovarian) of the same compound?
Its TGI is greater than 100 µM.

And the TGI (PC-3 prostate)?
Its TGI is greater than 100 µM.

What about the TGI (RPMI-8226 leukemia) of the same compound?
Its TGI is 59.5 µM.

What about the TGI (RXF 393 renal) of the same compound?
The TGI was 62.4 µM.

What about the TGI (SF-268 CNS) of the same compound?
Its TGI is greater than 100 µM.

What about the TGI (SF-295 CNS) of the same compound?
Its TGI is greater than 100 µM.

What about the TGI (SF-539 CNS) of the same compound?
The TGI was greater than 100 µM.

And the TGI (SK-MEL-2 melanoma)?
The TGI was greater than 100 µM.

What about the TGI (SK-MEL-5 melanoma) of the same compound?
The TGI was greater than 100 µM.

And the TGI (SK-OV-3 ovarian)?
Its TGI is greater than 100 µM.

And the TGI (SN12C renal)?
Its TGI is greater than 100 µM.

What about the TGI (SNB-19 CNS) of the same compound?
The TGI was greater than 100 µM.

And the TGI (SNB-75 CNS)?
Its TGI is 83.2 µM.

What about the TGI (SR leukemia) of the same compound?
The TGI was greater than 100 µM.

And the TGI (SW-620 colon)?
Its TGI is greater than 100 µM.

What about the TGI (T-47D breast) of the same compound?
Its TGI is 65.6 µM.

What about the TGI (TK-10 renal) of the same compound?
Its TGI is greater than 100 µM.

And the TGI (U251 CNS)?
Its TGI is greater than 100 µM.

And the TGI (UACC-257 melanoma)?
The TGI was greater than 100 µM.

What about the TGI (UACC-62 melanoma) of the same compound?
The TGI was greater than 100 µM.

What about the TGI (UO-31 renal) of the same compound?
The TGI was greater than 100 µM.
